Assay results taken from paper PMC12845261, “Design, Synthesis, and Biological Evaluation of N-Acyl-Hydrazone-Linked Quinazolinone Derivatives with Antioxidant, Antimicrobial, and Anticancer Potential” (Pharmaceuticals, 2025).
Converted amounts (≈) assume the structure as drawn.

Key:
C. albicans ATCC 10231 [1] = test: Microbicidal activity (MMC); assay type: cell-based; conditions: DMSO control 5
Protocol: (§1) For the evaluation of antimicrobial activity, the following reference strains were used: S. aureus ATCC 25923, E. faecalis ATCC 29212, E. coli ATCC 25922, P. aeruginosa ATCC 27853 and C. albicans ATCC 10231. To determine the MMCs, 5 μL of culture was taken from each well and distributed on solid medium. The plates were incubated for 20–24 h at 37 °C. The lowest concentration at which no microbial growth was observed was considered MMC.

S. aureus ATCC 25923 [2] = test: Microbicidal activity (MMC); assay type: cell-based; conditions: DMSO control 5
Protocol: as §1

P. aeruginosa ATCC 27853 [3] = test: Microbicidal activity (MMC); assay type: cell-based; conditions: DMSO control 2.5
Protocol: as §1

E. faecalis ATCC 29212 [4] = test: Microbicidal activity (MMC); assay type: cell-based; conditions: DMSO control >5
Protocol: as §1

C. albicans ATCC 10231 [5] = test: Microbial adhesion, crystal violet (MICMA); assay type: cell-based; conditions: DMSO control 1.25
Protocol: (§2) For the evaluation of antimicrobial activity, the following reference strains were used: S. aureus ATCC 25923, E. faecalis ATCC 29212, E. coli ATCC 25922, P. aeruginosa ATCC 27853 and C. albicans ATCC 10231.
(§3) Following quantitative analysis of antimicrobial activity, microbial adhesion was evaluated after methanol fixation and violet crystal staining (0.1%). The absorbance of the adhered biomass colored with violet crystal and resuspended in 33% acetic acid was measured at 490 nm.

S. aureus ATCC 25923 [6] = test: Microbial adhesion, crystal violet (MICMA); assay type: cell-based; conditions: DMSO control 5
Protocol: as §2, §3

E. faecalis ATCC 29212 [7] = test: Microbial adhesion, crystal violet (MICMA); assay type: cell-based; conditions: DMSO control 2.5
Protocol: as §2, §3

E. coli ATCC 25922 [8] = test: Microbial adhesion, crystal violet (MICMA); assay type: cell-based; conditions: DMSO control 5
Protocol: as §2, §3

[9] = Total antioxidant capacity (TAC), DPPH method; conditions: 30 min, 517 nm, compound stock 1 mg/mL in methanol, reference ascorbic acid TAC = 100%
Protocol: The total antioxidant capacity (TAC) was evaluated using diphenyl-1-picrylhydrazyl free radical (DPPH) method. The TAC value was determined in relation to the antioxidant capacity of the reference (ascorbic acid, TAC = 100%). […] The maximum value was recorded for 1c (~45%), followed by 1f and 1a (~43%), while the minimum for 1e (~19%).
In this study, the TAC values were obtained using the most-known DPPH method, in which the intense violet colour of the free radical solution is decreasing. Stock solutions of compounds 1a–1f and 2 were prepared in absolute methanol at a concentration of 1 mg/mL. A stock solution of 2,2-diphenyl-1-picrylhydrazyl free radical was obtained in the same solvent, at a concentration of 2 × 10^−4 M. To 1.8 mL of DPPH solution was added 0.2 mL of each solution of the compounds 1a–1f and 2 and the mixture was left in the dark for 30 min, followed by measurements of the absorbance at 517 nm. The following equation was used to calculate TAC: TAC%=Abs0 min−Abs30 min/Abs0min·100 where Abs0 min refers to the initial absorbance of the DPPH free radical solution, and Abs 30 min refers to the absorbance of the solution of DPPH and the added compound after 30 min. Ascorbic acid was used as a reference.

C. albicans ATCC 10231 [10] = test: Qualitative antimicrobial activity, adapted Kirby-Bauer (inhibition zone); assay type: cell-based; conditions: 10 μL of 10 mg/mL DMSO stock, mean ± SD
Protocol: (§4) For the evaluation of antimicrobial activity, the following reference strains were used: S. aureus ATCC 25923, E. faecalis ATCC 29212, E. coli ATCC 25922, P. aeruginosa ATCC 27853 and C. albicans ATCC 10231. The microbial suspensions were prepared at a density of 1.5 × 10^8 CFU/mL, corresponding to the McFarland 0.5 nephelometric standard. These suspensions were obtained from 18–24 h cultures developed on solid media (Mueller-Hinton for bacteria, Sabouraud for yeast). Antimicrobial activity was assessed using an adapted Kirby-Bauer method according to CLSI (Clinical and Laboratory Standards Institute). In addition to the 10 mg/mL stock solutions prepared in DMSO for each compound, a solvent control was used. Each stock solution (10 μL) was distributed in spot on the medium inoculated with the interest strain. After measuring the diameter of the inhibition zone (IZD) around the spot (mm), the results were expressed as the mean ± standard deviation (SD) for each compound tested in duplicate.

S. aureus ATCC 25923 [11] = test: as above; assay type: cell-based; conditions: 10 μL of 10 mg/mL DMSO stock, mean ± SD
Protocol: as §4

P. aeruginosa ATCC 27853 [12] = test: as above; assay type: cell-based; conditions: 10 μL of 10 mg/mL DMSO stock, mean ± SD
Protocol: as §4

E. faecalis ATCC 29212 [13] = test: as above; assay type: cell-based; conditions: 10 μL of 10 mg/mL DMSO stock, mean ± SD
Protocol: as §4

E. coli ATCC 25922 [14] = test: as above; assay type: cell-based; conditions: 10 μL of 10 mg/mL DMSO stock, mean ± SD
Protocol: as §4

C. albicans ATCC 10231 [15] = test: Quantitative antimicrobial activity, serial binary microdilution (MIC, IC50); assay type: cell-based; conditions: Candida albicans, ATCC10231, 24 h, 37 °C, DMSO control 1.25
Protocol: as §2
(§5) Quantitative analysis was performed using the method of serial binary microdilutions in liquid medium (Tryptone Soy Broth for bacteria and Sabouraud Broth for yeasts) in plates with 96 wells. Stock solutions of 10 mg/mL were made in DMSO, and the range of concentrations tested for each compound was 5000–0.16 μg/mL. Simultaneously, the DMSO control was carried out under the same working conditions. Each well was inoculated with 10 μL of microbial suspension, adjusted to a density of 1.5 × 10^8 CFU/mL prepared from 18 to 24 h cultures. After 24 h of incubation at 37 °C, microbial growth and multiplication were evaluated both macroscopically and spectrophotometrically at 620 nm to establish the MIC values. […] Blanks were made for each sample concentration, and the formula was applied: Microbial viability(%)=Asample−Ablank/Astrain control−Asterility control·100

S. aureus ATCC 25923 [16] = test: as above; assay type: cell-based; conditions: 24 h; for MIC / MIC (mg/mL): S. aureus ATCC 25923, 37 °C, DMSO control 2.5
Protocol: as §2, §5

P. aeruginosa ATCC 27853 [17] = test: as above; assay type: cell-based; conditions: Pseudomonas aeruginosa, ATCC27853, 24 h, 37 °C, DMSO control 1.25
Protocol: as §2, §5

E. faecalis ATCC 29212 [18] = test: as above; assay type: cell-based; conditions: 37 °C, DMSO control 2.5; for MIC: Enterococcus faecalis, ATCC29212, 24 h
Protocol: as §2, §5

E. coli ATCC 25922 [19] = test: as above; assay type: cell-based; conditions: for MIC: Escherichia coli, ATCC25922, E. coli ATCC 25922, 24 h, 37 °C, DMSO control 1.25
Protocol: as §2, §5

[20] = Staphylococcus aureus, ATCC25923

Row | SMILES | MMC (C. albicans ATCC 10231 [1]) | MMC (S. aureus ATCC 25923 [2]) | MMC (P. aeruginosa ATCC 27853 [3]) | MMC (E. faecalis ATCC 29212 [4]) | MICMA (C. albicans ATCC 10231 [5]) | MICMA (S. aureus ATCC 25923 [6]) | MICMA (E. faecalis ATCC 29212 [7]) | MICMA (E. coli ATCC 25922 [8]) | TAC (%) [9] | IZD (mm) (C. albicans ATCC 10231 [10]) | IZD (mm) (S. aureus ATCC 25923 [11]) | IZD (mm) (P. aeruginosa ATCC 27853 [12]) | IZD (mm) (E. faecalis ATCC 29212 [13]) | IZD (mm) (E. coli ATCC 25922 [14]) | MIC (C. albicans ATCC 10231 [15]) | MIC (S. aureus ATCC 25923 [16]; [20]) | MIC (P. aeruginosa ATCC 27853 [17]) | MIC (E. faecalis ATCC 29212 [18]) | MIC (E. coli ATCC 25922 [19]) | MIC (mg/mL) (S. aureus ATCC 25923 [16]) | further results
1 | COc1cccc(/C=N/NC(=O)Cn2c(C)nc3ccccc3c2=O)c1O [Compound 1c, N′-[(E)-(2-hydroxy-3-methoxyphenyl)methylidene]-2-(2-methyl-4-oxoquinazolin-3(4H)-yl)acetohydrazide] | 5 mg/mL | 5 mg/mL | 2.5 mg/mL | >5 mg/mL | 0.625 mg/mL | 2.5 mg/mL | 2.5 mg/mL | 2.5 mg/mL | 45.1% | 6.67 ± 0.58 mm | 7.67 ± 0.58 mm | 0.00 ± 0.00 mm | 7.67 ± 0.58 mm | 0.00 ± 0.00 mm | 2500 µg/mL (≈ 6.82 mM) | 2500 µg/mL (≈ 6.82 mM) | 1250 µg/mL (≈ 3.41 mM) | 2500 µg/mL (≈ 6.82 mM) | 1250 µg/mL (≈ 3.41 mM) |  | IC50 (antimicrobial activity) compared with solvent control (E. coli ATCC 25922 [19]; E. coli, versus DMSO, p < 0.05): significantly lower IC50 values than the solvent control
2 | Cc1nc2ccccc2c(=O)n1CC(=O)N/N=C/c1cc(Br)cc(Br)c1O [Compound 1b, N′-[(E)-(3,5-bromo-2-hydroxyphenyl)methylidene]-2-(2-methyl-4-oxoquinazolin-3(4H)-yl)acetohydrazide] | 5 mg/mL | >5 mg/mL | 5 mg/mL | >5 mg/mL | 5 mg/mL | 1.25 mg/mL | 5 mg/mL | 2.5 mg/mL | 38.9% | 0.00 ± 0.00 mm | 12.33 ± 0.58 mm | 0.00 ± 0.00 mm | 0.00 ± 0.00 mm | 0.00 ± 0.00 mm | 625 µg/mL (≈ 1.26 mM) | 312 µg/mL (≈ 0.632 mM) | 5000 µg/mL (≈ 10.1 mM) | > 5000 µg/mL | 1250 µg/mL (≈ 2.53 mM) | specifically active | IC50 (S. aureus ATCC 25923 [16]; Staphylococcus aureus, ATCC25923, S. aureus, four-parameter fit of microbial viability): 85.7 µg/mL (≈ 0.173 mM)
3 | Cc1nc2ccccc2c(=O)n1CC(=O)N/N=C/c1cc(Br)ccc1O [Compound 1a, N′-[(E)-(5-bromo-2-hydroxyphenyl)methylidene]-2-(2-methyl-4-oxoquinazolin-3(4H)-yl)acetohydrazide] | 5 mg/mL | >5 mg/mL | 2.5 mg/mL |  | 0.625 mg/mL | 2.5 mg/mL | 1.25 mg/mL | 1.25 mg/mL | 42.7% | 0.00 ± 0.00 mm | 0.00 ± 0.00 mm | 0.00 ± 0.00 mm | 0.00 ± 0.00 mm | 0.00 ± 0.00 mm | 625 µg/mL (≈ 1.51 mM) | 1250 µg/mL (≈ 3.01 mM) | 1250 µg/mL (≈ 3.01 mM) | 1250 µg/mL (≈ 3.01 mM) | 1250 µg/mL (≈ 3.01 mM) | specifically active | MIC (mg/mL) (E. faecalis ATCC 29212 [18]; 24 h): specifically active
